Experimental findings from patent US7235366B1 (priority 1993, dated 2007) are described below.

Where two headings read alike, the source gives them in different places. Residues, ends and D or L forms follow the SMILES beside them. Bounds are passed on as bounds.

Test [1] deals with T1, wild-type mouse delta opioid receptor (Mus musculus, UniProt P32300).
T1 construct: expressed in transfected cells; host or cells: COS-7 (transient, pCMV6c)
Nature of the test: biochemical. The format is binding.

Test [2] addresses T2, MOP2 (Mus musculus, UniProt P35377).
T2 construct: expressed in transfected cells; host or cells: COS-7 (transient)
The format is cell-based.

In the next test the target is T3, cloned mouse δ receptor (Mus musculus, UniProt P32300).
T3 construct: expressed in transfected cells
Nature of the test: biochemical. The format is binding.

Test [3] concerns the target T4, D128N mutant mouse delta opioid receptor (Mus musculus, UniProt P32300, D128N).
T4 construct: expressed in transfected cells; host or cells: COS-7 (transient, pCMV6c)
As to the kind of experiment: biochemical. The format is binding.

Test [4] has as its target T5, H278N mutant mouse delta opioid receptor (Mus musculus, UniProt P32300, H278N).
T5 construct: expressed in transfected cells; host or cells: COS-7 (transient, pCMV6c)
As to the kind of experiment: biochemical. The format is binding.

In another test the target is T6, cloned mouse κ receptor (Mus musculus, UniProt P33534).
T6 construct: expressed in transfected cells
Nature of the test: biochemical. The format is binding.

The target in a further test is T7, cloned rat μ receptor (Rattus norvegicus, UniProt P33535).
T7 construct: expressed in transfected cells; host or cells: COS-7 (transient)
Nature of the test: biochemical. The format is binding.

Test [5] concerns the target T8, mouse delta opioid receptor aspartate 95 to asparagine mutant (Mus musculus, UniProt P32300, D95N).
T8 construct: expressed in transfected cells; host or cells: COS-7
As to the kind of experiment: Binding to delta receptor mutant with aspartate 95 converted to asparagine, COS-7 cells.

In another test the test system is κ/δ2eloop chimera. The format is binding.
The target in test [6] is T9, cloned human μ opioid receptor (Homo sapiens, UniProt P35372).
T9 construct: This fragment includes the entire coding region of the human μ opioid receptor; expressed in transfected cells; host or cells: COS-7 (transient, pcDNA3)
The format is binding.

Test [7] addresses T2, MOP2. The format is binding.
The mark [8] stands for this setting: read-out: Binding potencies (Ki-nM) μ RECEPTOR [^3H] DAMGO.
Setting [9] is: read-out: Binding potencies (Ki-nM) δ RECEPTOR [^3H] naltrindole.
Setting [10] is: read-out: Binding potencies (Ki-nM) κ RECEPTOR [^3H] U-69, 593.
Setting [11] is: Binding potencies (Ki-nM) μ RECEPTOR [^3H] DAMGO.

T7 sequence (P33535 whole entry): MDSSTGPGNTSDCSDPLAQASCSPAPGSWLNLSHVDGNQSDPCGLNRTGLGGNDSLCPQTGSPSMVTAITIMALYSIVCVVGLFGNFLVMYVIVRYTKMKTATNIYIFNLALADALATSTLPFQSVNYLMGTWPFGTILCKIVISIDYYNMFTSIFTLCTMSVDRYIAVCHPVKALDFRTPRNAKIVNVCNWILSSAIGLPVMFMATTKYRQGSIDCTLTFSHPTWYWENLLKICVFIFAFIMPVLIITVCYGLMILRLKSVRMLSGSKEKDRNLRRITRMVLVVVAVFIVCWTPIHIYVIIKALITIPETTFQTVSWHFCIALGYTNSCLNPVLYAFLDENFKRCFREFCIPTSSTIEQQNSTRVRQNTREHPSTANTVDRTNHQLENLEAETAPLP
T1 sequence (P32300 whole entry): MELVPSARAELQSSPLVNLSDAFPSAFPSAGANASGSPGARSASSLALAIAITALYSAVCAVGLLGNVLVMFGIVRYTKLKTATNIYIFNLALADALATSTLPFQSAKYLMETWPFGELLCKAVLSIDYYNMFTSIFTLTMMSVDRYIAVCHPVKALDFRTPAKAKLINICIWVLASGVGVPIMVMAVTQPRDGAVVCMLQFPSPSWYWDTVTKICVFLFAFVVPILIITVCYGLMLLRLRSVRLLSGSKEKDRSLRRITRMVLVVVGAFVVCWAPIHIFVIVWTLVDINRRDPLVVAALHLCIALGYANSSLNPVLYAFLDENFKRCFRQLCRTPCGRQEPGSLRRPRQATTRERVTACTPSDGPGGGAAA
T3 sequence (P32300 whole entry): as above
T4 sequence (P32300 whole entry D128N): as the sequence (P32300 whole entry) above, with D128N counted along it
T2 sequence (P35377 whole entry): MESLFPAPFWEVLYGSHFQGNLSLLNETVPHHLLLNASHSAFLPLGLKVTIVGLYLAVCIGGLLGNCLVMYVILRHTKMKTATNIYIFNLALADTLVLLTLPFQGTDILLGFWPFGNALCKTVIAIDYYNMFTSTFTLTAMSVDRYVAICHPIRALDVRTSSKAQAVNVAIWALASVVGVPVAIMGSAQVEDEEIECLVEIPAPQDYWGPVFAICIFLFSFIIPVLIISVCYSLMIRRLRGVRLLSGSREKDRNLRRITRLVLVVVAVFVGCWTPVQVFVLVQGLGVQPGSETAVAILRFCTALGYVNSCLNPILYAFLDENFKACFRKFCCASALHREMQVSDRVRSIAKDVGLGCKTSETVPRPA
T5 sequence (P32300 whole entry H278N): as the sequence (P32300 whole entry) above, with H278N counted along it
T6 sequence (P33534 whole entry): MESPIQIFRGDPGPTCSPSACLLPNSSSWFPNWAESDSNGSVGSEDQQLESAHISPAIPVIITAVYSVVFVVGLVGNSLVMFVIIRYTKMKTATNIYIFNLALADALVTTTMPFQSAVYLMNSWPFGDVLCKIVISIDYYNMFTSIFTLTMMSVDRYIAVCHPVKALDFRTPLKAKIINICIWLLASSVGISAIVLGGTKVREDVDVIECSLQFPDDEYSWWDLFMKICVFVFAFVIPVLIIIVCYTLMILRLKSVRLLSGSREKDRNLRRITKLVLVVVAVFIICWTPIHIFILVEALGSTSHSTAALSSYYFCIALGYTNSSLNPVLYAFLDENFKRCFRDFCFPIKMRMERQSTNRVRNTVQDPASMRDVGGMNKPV
T8 sequence (P32300 whole entry D95N): as the sequence (P32300 whole entry) above, with D95N counted along it
T9 sequence (P35372 whole entry, the tested form may be a part): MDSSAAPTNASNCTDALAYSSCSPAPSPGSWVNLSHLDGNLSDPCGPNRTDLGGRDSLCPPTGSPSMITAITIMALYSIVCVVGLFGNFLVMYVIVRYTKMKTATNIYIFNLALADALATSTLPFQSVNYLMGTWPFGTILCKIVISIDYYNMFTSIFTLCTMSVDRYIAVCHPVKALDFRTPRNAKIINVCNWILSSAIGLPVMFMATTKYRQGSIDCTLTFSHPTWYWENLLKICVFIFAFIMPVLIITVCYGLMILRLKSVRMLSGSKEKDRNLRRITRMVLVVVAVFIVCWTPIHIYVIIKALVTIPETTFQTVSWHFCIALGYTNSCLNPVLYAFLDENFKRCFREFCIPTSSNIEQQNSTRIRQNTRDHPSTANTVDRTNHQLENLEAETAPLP

Consider `CN1CC[C@]23CCCC[C@H]2[C@H]1Cc1ccc(O)cc13` [Levorphanol], for which the Ki – broadly, a dissociation constant, usually derived from enzyme kinetics or from competition with a known ligand – in test [1] worked out at 187 nM; at cloned mouse δ receptor, 5 nM; in test [3] it was 4380 nM; in test [4], 2.8 nM; at cloned mouse κ receptor it was 6.5 nM. The “Effect on forskolin-stimulated cAMP formation, MOP2” value (from here on “Effect”) on MOP2 [2] is “no effect”.
With `C=CCN1CC[C@]23c4c5ccc(O)c4O[C@H]2[C@@H](O)C=C[C@H]3[C@H]1C5` [nalorphine], the Ki at cloned rat μ receptor is 0.97 nM; on cloned mouse κ receptor it was 1.1 nM.
On to `CC(C)=CCN1CCC2(C)c3cc(O)ccc3CC1C2C` (stereo not shown) [pentazocine], for which the results for the Ki at cloned rat μ receptor and at cloned mouse δ receptor were 5.7 nM and 31 nM, respectively.
In the case of `O=C1/C(=C/c2ccccc2)C[C@@]2(O)[C@H]3Cc4ccc(O)c5c4[C@@]2(CCN3CC2CC2)[C@H]1O5` [BNTX, 7-Benyllidenenaltrexone], the inhibition constant Ki worked out at 18 nM on cloned rat μ receptor (setting [8]), 0.66 nM on cloned mouse δ receptor (setting [9]) and 55 nM on cloned mouse κ receptor (setting [10]). Moreover, the “Affinity of aspartate 95 mutant and wild-type delta receptors compared” value in test [5] is recorded as “similar”.
As to `CC[C@]12CCN(CC3CC3)[C@H](C(=O)c3ccc(O)cc31)[C@@H]2C` [Ethylketocyclazocine], the Ki was 3.1 nM on cloned rat μ receptor and 101 nM at cloned mouse δ receptor. The “Effect” value at MOP2 [2] was “no effect”.
For the compound `CC[C@H](C)[C@H](NC(=O)[C@H](CCCNC(=N)N)NC(=O)[C@H](CCCNC(=N)N)NC(=O)[C@H](CC(C)C)NC(=O)[C@H](Cc1ccccc1)NC(=O)CNC(=O)CNC(=O)[C@@H](N)Cc1ccc(O)cc1)C(=O)N[C@@H](CCCNC(=N)N)C(=O)N1CCC[C@H]1C(=O)N[C@@H](CCCCN)C(=O)N[C@@H](CC(C)C)C(=O)N[C@@H](CCCCN)C(=O)N[C@@H](Cc1c[nH]c2ccccc12)C(=O)N[C@@H](CC(=O)O)C(=O)N[C@@H](CC(N)=O)C(=O)N[C@@H](CCC(N)=O)C(=O)O` [Dynorphin], the “Binding to the κ/δ2eloop chimera” value with κ/δ2eloop chimera is listed as “did not bind”.
In the case of `CN1CC[C@@]23CCCC[C@@H]2[C@@H]1Cc1ccc(O)cc13` [Dextrorphan], the Ki at cloned mouse δ receptor and on cloned mouse κ receptor was more than 1000 nM in each case.
For the compound `Oc1ccc2c3c1O[C@H]1c4[nH]c5c(c4C[C@@]4(O)[C@@H](C2)N(CC2CC2)CC[C@]314)C[C@@]1(O)[C@H]2Cc3ccc(O)c4c3[C@@]1(CCN2CC1CC1)[C@H]5O4` [nor-BNI, nor-binaltorphimine], the Ki on cloned mouse κ receptor was found to be 0.027 nM.
Regarding Dynorphin A (1–17), the “Binding to the κ/δ2eloop chimera” value with κ/δ2eloop chimera was “did not bind”.
With `CC[C@H](C)[C@H](NC(=O)[C@H](C)NC(=O)[C@H](CC(N)=O)NC(=O)[C@H](CCCCN)NC(=O)[C@H](Cc1ccccc1)NC(=O)[C@H](CC(C)C)NC(=O)[C@@H](NC(=O)[C@@H](NC(=O)[C@H](CC(C)C)NC(=O)[C@@H]1CCCN1C(=O)[C@@H](NC(=O)[C@H](CCC(N)=O)NC(=O)[C@H](CO)NC(=O)[C@H](CCCCN)NC(=O)[C@H](CCC(=O)O)NC(=O)[C@H](CO)NC(=O)[C@@H](NC(=O)[C@H](CCSC)NC(=O)[C@H](Cc1ccccc1)NC(=O)CNC(=O)CN)[C@@H](C)O)[C@@H](C)O)C(C)C)[C@@H](C)O)C(=O)N[C@H](C(=O)N[C@@H](CCCCN)C(=O)N[C@@H](CC(N)=O)C(=O)N[C@@H](C)C(=O)N[C@@H](Cc1ccc(O)cc1)C(=O)N[C@@H](CCCCN)C(=O)N[C@@H](CCCCN)C(=O)NCC(=O)N[C@@H](CCC(=O)O)C(=O)O)[C@@H](C)CC` [des-Tyr^1-β-endorphin] (H-GGFMTSEKSQTPLVTLFKNAIIKNAYKKGE-OH; N-terminus and C-terminus assumed), the Ki at cloned rat μ receptor (setting [8]), on cloned mouse δ receptor (setting [9]) and at cloned mouse κ receptor (setting [10]) was more than 1000 nM in each case.
As to `CN1CC[C@]23c4c5ccc(O)c4O[C@H]2[C@@H](O)C=C[C@H]3[C@H]1C5` [morphine], the “Effect” value on MOP2 [2] is given as “no effect”.
Turning to `CC(C)C[C@H](NC(=O)[C@H](Cc1ccccc1)NC(=O)CNC(=O)[C@@H](CO)NC(=O)[C@@H](N)Cc1ccc(O)cc1)C(=O)N[C@H](C(=O)O)[C@@H](C)O` [DSLET, [D-Ser^2, Leu^5]enkephalin-Thr^6], at cloned rat μ receptor (setting [11]), the Ki came out at 39 nM.
Dynorphin A (1–8): the “Binding to the κ/δ2eloop chimera” value with κ/δ2eloop chimera was “did not bind”.
As for `CCC(=O)C(CC(C)N(C)C)(c1ccccc1)c1ccccc1` (stereo not shown) [methadone], the “Effect” value at MOP2 [2] was “no effect”.
Regarding `NC(=O)[C@@H]1CCCN1C(=O)[C@H](Cc1ccccc1)NC(=O)[C@@H]1CCCN1C(=O)[C@@H](N)Cc1ccc(O)cc1` [morphiceptin] (H-YPFP-NH2), the Ki on cloned rat μ receptor (Affinities for the cloned μ receptor) was 10 to 100 nM; at cloned rat μ receptor (setting [11]), 56 nM; on cloned mouse δ receptor, more than 1000 nM; on cloned mouse κ receptor, more than 1000 nM.
On to `CN(C(=O)Cc1ccc(Cl)c(Cl)c1)C(CN1CCCC1)c1cccc(OCC(=O)O)c1` (stereo not shown) [ICI 204, 448], for which the Ki at cloned rat μ receptor (setting [8]) was more than 1000 nM; at cloned mouse δ receptor (setting [9]), more than 1000 nM; at cloned mouse κ receptor (setting [10]), 0.71 nM.
As to D-Ala^2-deltorphin II, in test [6], the “Binding to the cloned human receptor (inhibition of [3H]DAMGO binding), words” value is recorded as “did not bind”.
On to `CC(C)=CCN1CCC2(C)c3cc(O)ccc3CC1C2C` (stereo not shown) [^3H-pentazocine], for which the “Specific binding of radioligand to MOP2” value on MOP2 [7] is “did not bind specifically”.
Turning to `COc1ccc2c3c1O[C@H]1[C@@H](O)C=C[C@H]4[C@@H](C2)N(C)CC[C@@]341` [codeine], at MOP2 [2], the “Effect” value was “no effect”. Besides, the Ki at cloned mouse δ receptor and on cloned mouse κ receptor was more than 1000 nM in each case.
`COC(=O)/C=C/C(=O)N[C@@H]1CC[C@@]2(O)[C@H]3Cc4ccc(O)c5c4[C@@]2(CCN3CC2CC2)[C@H]1O5` [β-FNA, β-funaltrexamine]: the Ki in test [6] (read-out: Binding potencies (Ki-nM) for the cloned human μ opioid receptor [^3H] DAMGO) was 0.29 nM; on cloned rat μ receptor (setting [8]), 0.33 nM; on cloned mouse δ receptor (setting [9]), 48 nM; on cloned mouse κ receptor (setting [10]), 2.8 nM.
For the compound β-Endorphin (human), the “Effect” value at MOP2 [2] is reported as “no effect”.
Turning to `C[C@@H](O)[C@H](NC(=O)[C@H]1NC(=O)[C@H]([C@@H](C)O)NC(=O)[C@H](CCCN)NC(=O)[C@@H](Cc2c[nH]c3ccccc23)NC(=O)[C@H](Cc2ccc(O)cc2)NC(=O)[C@@H](NC(=O)[C@H](N)Cc2ccccc2)CSSC1(C)C)C(N)=O` [CTOP, D-Phe-Cys-Tyr-D-Trp-Orn-Thr-Pen-Thr-NH2], the Ki on cloned mouse δ receptor and at cloned mouse κ receptor was more than 1000 nM throughout.
Take `Oc1ccc2c3c1O[C@H]1c4oc5ccccc5c4C[C@@]4(O)[C@@H](C2)N(CC2CC2)CC[C@]314` [NTB]: the Ki in test [1] (read-out: Potencies of Antagonist binding, Wild-type (Ki values in nM)) amounted to 0.04 nM; at cloned rat μ receptor (setting [8]), 12 nM; at cloned mouse δ receptor (setting [9]), 0.013 nM; in test [3] (read-out: Potencies of Antagonist binding, D128N mutant (Ki values in nM)), 0.07 nM; in test [4] (read-out: Potencies of Antagonist binding, H278N mutant (Ki values in nM)), 0.03 nM; at cloned mouse κ receptor (setting [10]), 13 nM. In addition, in test [5], the “Affinity of aspartate 95 mutant and wild-type delta receptors compared” value was “similar”.
As for `CN1CC[C@]23c4c5ccc(O)c4O[C@H]2C(=O)C2(Cc4ccccc4C2)C[C@@]3(O)[C@H]1C5` [SIOM, 7-spiroindino-oxymorphone], the Ki in test [1] (read-out: Potencies of Agonists to Bind, Wild-type (Ki values in nM)) is 46 nM; at cloned rat μ receptor (setting [8]), 33 nM; in [3] (read-out: Potencies of Agonists to Bind, D128N mutant (Ki values in nM)), 1220 nM; in test [4] (read-out: Potencies of Agonists to Bind, H278N mutant (Ki values in nM)), 1.8 nM; on cloned mouse κ receptor (setting [10]) it was more than 1000 nM.
As for `C[C@@H](NC(=O)[C@@H](N)Cc1ccc(O)cc1)C(=O)NCC(=O)N(C)[C@@H](Cc1ccccc1)C(=O)NCCO` [[^3H]DAMGO], on MOP2 [7], the “Specific binding of radioligand to MOP2” value is on record as “did not bind specifically”.
